US10633389B2, “CARM1 inhibitors and uses thereof” (Epizyme, Inc., priority 2013, dated 2020)

What follows are compounds tested on asymmetric di-methyl PABP1 in RKO cells (assay: RKO methylation assay, In Cell Western (ICW) for asymmetric di-methyl PABP1). Conditions: Homo sapiens, RKO, Cellular potencies, ICW PABP1me2a.
Type: cell-based
How it was run: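 In-cell Western on fixed RKO cells after 48 h compound exposure: anti-asymmetric di-methyl PABP1 signal at 800 nm over DRAQ5 DNA signal at 700 nm. Percent inhibition set between DMSO wells and wells with 20 μM reference compound; IC50 curves fitted in triplicate.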

IC50 [µM]	Structure (SMILES)
< 5	CNCC(O)COc1cccc(-c2nc(N[C@@H]3CCOC3)c(C)c(N3CCN(C4CC4)CC3)n2)c1 (stereo partly drawn) [Example 436-1a]
5 to 10	CNCC(O)COc1cccc(-c2nc(N[C@@H]3CCOC3)c(C)c(N3CC[C@@H](O)C3)n2)c1 (stereo partly drawn) [Example 437-1a]
5 to 10	CNCC(O)COc1cccc(-c2nc(N[C@@H]3CCOC3)c(C)c(N3CCN(C(C)=O)C(C)(C)C3)n2)c1 (stereo partly drawn) [Example 439-1a]
10 to 20	CNCC(O)COc1cccc(-c2nc(N[C@@H]3CCOC3)c(C)c(N3C[C@H]4CNC[C@H]4C3)n2)c1 (stereo partly drawn) [Example 440-1a]
5 to 10	CNCC(O)COc1cccc(-c2nc(N[C@@H]3CCOC3)c(C)c(N3CCC(S(C)(=O)=O)CC3)n2)c1 (stereo partly drawn) [Example 441-1a]
10 to 20	CNCC(O)COc1cccc(-c2nc(NC3CCOC3)c(C)c(N3CC(N)CC(Cl)C3)n2)c1 (stereo not drawn) [Example 442-1a]
10 to 20	CNCC(O)COc1cccc(-c2nc(N[C@@H]3CCOC3)c(C)c(N3C[C@H]4C[C@@H]3CN4C)n2)c1 (stereo partly drawn) [Example 443-1a]
< 5	CNCC(O)COc1cccc(-c2nc(NC3CCOC3)c(C)c(N3CCN(CCF)CC3)n2)c1 (stereo not drawn) [Example 446-1a]
10 to 20	CNCC(O)COc1cccc(-c2nc(NC3CCOC3)c(C)c(N3CCN(C(=O)OC)C(C)(C)C3)n2)c1 (stereo not drawn) [Example 447-1a]
< 5	CCS(=O)(=O)N1CCN(c2nc(-c3cccc(OCC(O)CNC)c3)nc(NC3CCOC3)c2C)CC1(C)C (stereo not drawn) [Example 448-1a]
< 5	CNCC(O)COc1cccc(-c2nc(NC3CCOC3)c(C)c(N3CCN(CC(F)(F)F)CC3)n2)c1 (stereo not drawn) [Example 449-1a]
5 to 10	CNCC(O)COc1cccc(-c2nc(NC3CCOC3)c(C)c(N3CCN4C(=O)OC[C@@H]4C3)n2)c1 (stereo partly drawn) [Example 454-1a]
< 5	CNCC(O)COc1cccc(-c2nc(NC3CCOC3)c(C)c(N3CCN(C)C(C)(C)C3)n2)c1 (stereo not drawn) [Example 455-1a]
< 5	CCOC(=O)N1CCN(c2nc(-c3cccc(OCC(O)CNC)c3)nc(N[C@@H]3CCOC3)c2C)CC1 (stereo partly drawn) [Example 456-1a]
10 to 20	CNCC(O)COc1cccc(-c2nc(NC3CCOC3)c(C)c(N3CCN(CC(F)F)C(C)(C)C3)n2)c1 (stereo not drawn) [Example 457-1a]
< 5	CNCC(O)COc1cccc(-c2nc(N[C@@H]3CCOC3)c(C)c(N3CCN(CC(F)F)CC3)n2)c1 (stereo partly drawn) [Example 458-1a]
10 to 20	CNCC(O)COc1cccc(-c2nc(N[C@@H]3CCOC3)c(C)c(N3CCC(c4cccnc4)C3)n2)c1 (stereo partly drawn) [Example 461-1a]
10 to 20	CNCC(O)COc1cccc(-c2nc(N[C@@H]3CCOC3)c(C)c(N3CCC4(CCOCC4)C3)n2)c1 (stereo partly drawn) [Example 462-1a]
< 5	CNCC(O)COc1cccc(-c2nc(N[C@@H]3CCOC3)c(C)c(N3CCN(C)[C@H](C)C3)n2)c1 (stereo partly drawn) [Example 463-1a]
< 5	CCS(=O)(=O)N1CCN(c2nc(-c3cccc(OCC(O)CNC)c3)nc(N[C@@H]3CCOC3)c2C)CC1 (stereo partly drawn) [Example 464-1a]
< 5	CNCC(O)COc1cccc(-c2nc(N[C@@H]3CCOC3)c(C)c(N3Cc4nc(C)sc4C3)n2)c1 (stereo partly drawn) [Example 465-1a]
< 5	CNCC(O)COc1cccc(-c2nc(N[C@@H]3CCOC3)c(C)c(N3CCN(C4CC4)[C@H](C)C3)n2)c1 (stereo partly drawn) [Example 466-1a]
< 5	CNCC(O)COc1cccc(-c2nc(N[C@@H]3CCOC3)c(C)c(N3CC[C@@H](c4cccnc4)C3)n2)c1 (stereo partly drawn) [Example 467-1a]

IC50 [µM]	Structure (SMILES)
5 to 10	CNCC(O)COc1cccc(-c2nc(N[C@@H]3CCOC3)c(C)c(N3CCC(n4nc(C)cc4C)C3)n2)c1 (stereo partly drawn) [Example 468-1a]
5 to 10	CNCC(O)COc1cccc(-c2nc(N[C@@H]3CCOC3)c(C)c(N3CCCC4(CN(CC(F)F)C4)C3)n2)c1 (stereo partly drawn) [Example 469-1a]
< 5	CCOC(=O)N1CCN(c2nc(-c3cccc(OCC(O)CNC)c3)nc(N[C@@H]3CCOC3)c2C)C[C@H]1C (stereo partly drawn) [Example 470-1a]
< 5	CNCC(O)COc1cccc(-c2nc(N[C@@H]3CCOC3)c(C)c(N3CCN(CC(F)F)[C@H](C)C3)n2)c1 (stereo partly drawn) [Example 471-1a]
5 to 10	CNCC(O)COc1cccc(-c2nc(N[C@@H]3CCOC3)c(C)c(N3CCC4(CN(CC(F)F)C4)C3)n2)c1 (stereo partly drawn) [Example 475-1a]
< 5	CNCC(O)COc1cccc(-c2nc(-c3cnc4c(C(=O)OC)cnn4c3)cc(N(C)C3CCOCC3)n2)c1 (stereo not drawn) [Example 482-1a]
< 5	CNCC(O)COc1cccc(-c2nc(-c3cn(S(C)(=O)=O)c4ncncc34)cc(N(C)C3CCOCC3)n2)c1 (stereo not drawn) [Example 483-1a]
< 5	CNCC(O)COc1cccc(-c2nc(-c3cn(C)c4ncncc34)cc(N(C)C3CCOCC3)n2)c1 (stereo not drawn) [Example 485-1a]
< 5	CNC[C@H](O)COc1cccc(-c2nc(-c3cnc4cnccn34)cc(N(C)C3CCOCC3)n2)c1 [Example 486-1a]
< 5	CNCC(O)COc1cccc(-c2nc(N(C)c3cncnc3)cc(N(C)C3CCOCC3)n2)c1 (stereo not drawn) [Example 487-1a]
< 5	CNC[C@@H](O)COc1cccc(-c2nc(-c3cn(S(C)(=O)=O)c4ncncc34)c(C)c(N(C)C3CCOCC3)n2)c1 [Example 488-1a]
< 5	CNCC(O)COc1cccc(-c2nc(-c3cnc4ncccn34)cc(N(C)C3CCOCC3)n2)c1 (stereo not drawn) [Example 489-1a]
< 5	CNCC(O)COc1cccc(-c2nc(-c3cnc4cnccn34)cc(N(C)C3CCOCC3)n2)c1 (stereo not drawn) [Example 490-1a]
< 5	CNCC(O)COc1cccc(-c2nc(-c3ncc(C)n3C)cc(N(C)C3CCOCC3)n2)c1 (stereo not drawn) [Example 491-1a]
< 5	CNCC(O)COc1cc(OC)cc(-c2nc(-c3cnc4cnccn34)cc(N(C)C3CCOCC3)n2)c1 (stereo not drawn) [Example 492-1a]
< 5	CNCC(O)COc1cccc(-c2nc(-c3csnc3C)cc(N(C)C3CCOCC3)n2)c1 (stereo not drawn) [Example 493-1a]
< 5	CNCC(O)COc1cccc(-c2nc(-c3scnc3C)cc(N(C)C3CCOCC3)n2)c1 (stereo not drawn) [Example 495-1a]
< 5	CNCC(O)COc1cccc(-c2nc(-c3c(C)nn(C(C)C)c3C)cc(N(C)C3CCOCC3)n2)c1 (stereo not drawn) [Example 496-1a]
< 5	CNCC(O)COc1cccc(-c2nc(-c3ccnc(C#N)c3)cc(N(C)C3CCOCC3)n2)c1 (stereo not drawn) [Example 498-1a]
< 5	CNCC(O)COc1cccc(-c2nc(-c3ccc(S(C)(=O)=O)cc3)cc(N(C)C3CCOCC3)n2)c1 (stereo not drawn) [Example 499-1a]
< 5	CNCC(O)COc1cccc(-c2nc(N3CCOCC3)c(F)c(N(C)C3CCOCC3)n2)c1 (stereo not drawn) [Example 500-1a]
< 5	CNCC(O)COc1cccc(-c2nc(-c3cn(C)cn3)cc(N(C)C3CCOCC3)n2)c1 (stereo not drawn) [Example 501-1a]
< 5	CNCC(O)COc1cccc(-c2nc(N3CCN(C)[C@@H](C)C3)cc(N(C)C3CCOCC3)n2)c1 (stereo partly drawn) [Example 502-1a]

IC50 [µM]	Structure (SMILES)
< 5	CNCC(O)COc1cccc(-c2nc(-c3ccnc(C(C)(C)O)c3)cc(N(C)C3CCOCC3)n2)c1 (stereo not drawn) [Example 503-1a]
< 5	CNCC(O)COc1cccc(-c2nc(-c3c[nH]c4ncncc34)cc(N(C)C3CCOCC3)n2)c1 (stereo not drawn) [Example 504-1a]
< 5	CC[C@H]1CN(c2cc(N(C)C3CCOCC3)nc(-c3cccc(OCC(O)CNC)c3)n2)CCN1 (stereo partly drawn) [Example 505-1a]
< 5	CNCC(O)COc1cc(Cl)cc(-c2nc(Nc3cncnc3)c(C)c(N(C)C3CCOCC3)n2)c1 (stereo not drawn) [Example 506-1a]
< 5	CNC[C@@H](O)COc1cccc(-c2nc(-c3cnc4cnccn34)cc(N(C)C3CCOCC3)n2)c1 [Example 507-1a]
< 5	CNCC(O)COc1cc(Cl)cc(-c2nc(C(=O)NCC3CCOCC3)cc(N(C)C3CCOCC3)n2)c1 (stereo not drawn) [Example 508-1a]
5 to 10	CNCC(O)COc1cccc(-c2nc(-c3ccnc(C(=O)NC)c3)cc(N(C)C3CCOCC3)n2)c1 (stereo not drawn) [Example 510-1a]
5 to 10	CNC[C@@H](O)COc1cccc(-c2nc(-c3cn(S(C)(=O)=O)c4ncncc34)cc(N(C)C3CCOCC3)n2)c1 [Example 511-1a]
5 to 10	CNCC(O)COc1cccc(-c2nc(-c3ccc(N4CCOCC4)nn3)cc(N(C)C3CCOCC3)n2)c1 (stereo not drawn) [Example 512-1a]
5 to 10	CNCC(O)COc1cccc(-c2nc(Nc3ncc(C)cn3)cc(N(C)C3CCOCC3)n2)c1 (stereo not drawn) [Example 513-1a]
5 to 10	CNCC(O)COc1cccc(-c2nc(-c3cnc4c(C(=O)N(C)C)cnn4c3)cc(N(C)C3CCOCC3)n2)c1 (stereo not drawn) [Example 514-1a]
5 to 10	CNCC(O)COc1cccc(-c2nc(-c3cnn(CC(C)C)c3)cc(N(C)C3CCOCC3)n2)c1 (stereo not drawn) [Example 516-1a]
5 to 10	CNCC(O)COc1cccc(-c2nc(-c3cnc(C)n3C)cc(N(C)C3CCOCC3)n2)c1 (stereo not drawn) [Example 517-1a]
5 to 10	CNCC(O)COc1cccc(-c2nc(-c3nc(C)cn3C)cc(N(C)C3CCOCC3)n2)c1 (stereo not drawn) [Example 519-1a]
5 to 10	CNCC(O)COc1cccc(-c2nc(-c3nc(C)c[nH]3)cc(N(C)C3CCOCC3)n2)c1 (stereo not drawn) [Example 521-1a]
5 to 10	CNCC(O)COc1cc(Cl)cc(-c2nc(-c3ccncc3C3CC3)cc(N(C)C3CCOCC3)n2)c1 (stereo not drawn) [Example 522-1a]
5 to 10	CNCC(O)COc1cccc(-c2nc(N3CCO[C@H](CN)C3)cc(N(C)C3CCOCC3)n2)c1 (stereo partly drawn) [Example 524-1a]
5 to 10	CNCC(O)COc1cccc(-c2nc(-c3cncnc3)cc(N(C)C3CCOCC3)n2)c1 (stereo not drawn) [Example 525-1a]
5 to 10	CNC[C@@H](O)COc1cccc(-c2nc(-c3c[nH]c4ncncc34)c(C)c(N(C)C3CCOCC3)n2)c1 [Example 526-1a]
5 to 10	CNCC(O)COc1cccc(-c2nc(-c3c(C)nn(C)c3C)cc(N(C)C3CCOCC3)n2)c1 (stereo not drawn) [Example 528-1a]
5 to 10	CNCC(O)COc1cccc(-c2nc(-c3cn(C)c(C)n3)cc(N(C)C3CCOCC3)n2)c1 (stereo not drawn) [Example 529-1a]
5 to 10	CNCC(O)COc1cccc(-c2nc(N3CCN(C)CC3)cc(N(C)C3CCOCC3)n2)c1 (stereo not drawn) [Example 531-1a]

Structure (SMILES)	IC50 [µM]
CNCC(O)COc1cccc(-c2nc(NC3CCOC3)c(C)c(N3CC4CC(C3)N4)n2)c1 (stereo not drawn) [Example 452-1a]	10 to 20
